Series [1] has as its target T1, 5-HT1A receptor (Homo sapiens, UniProt P08908).
T1 sequence (P08908 1-422): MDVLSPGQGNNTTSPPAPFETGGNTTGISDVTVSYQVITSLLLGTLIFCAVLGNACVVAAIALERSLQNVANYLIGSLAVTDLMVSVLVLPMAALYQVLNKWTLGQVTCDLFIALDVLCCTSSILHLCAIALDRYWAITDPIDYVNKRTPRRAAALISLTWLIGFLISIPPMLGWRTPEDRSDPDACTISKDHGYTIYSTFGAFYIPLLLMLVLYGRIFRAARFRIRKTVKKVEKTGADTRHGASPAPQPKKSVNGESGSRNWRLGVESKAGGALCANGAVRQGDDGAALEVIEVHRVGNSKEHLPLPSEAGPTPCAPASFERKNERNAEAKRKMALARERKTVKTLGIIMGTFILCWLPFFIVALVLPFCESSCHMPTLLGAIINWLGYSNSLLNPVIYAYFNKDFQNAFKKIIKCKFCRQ
The experiment in a line: radioligand binding assay, [3H]8-OH-DPAT. To be noted: read-out: 5-HT1A 1 µM ± SEM (% of control specific binding). The protocol:
(§1) Briefly: binding experiments were conducted in 96-well microplates in a total final volume of 250 μL of appropriate buffers. Reaction mix included 50 μL solution of test compound, 50 μL of radioligand ([^3H]8-OH-DPAT for 5-HT1A, and [^3H]-LSD for 5-HT7, respectively) and 150 μL of diluted membranes (see description and Table S2 in Supporting Materials). Specific assay conditions for each receptor are described elsewhere. The radioactivity was measured in a MicroBeta2 scintillation counter (PerkinElmer, USA). Each compound was tested in the assay as duplicate samples at 1 µM final concentrations. Results were expressed as percent inhibition of specific binding.

Series [2] concerns the target 5-HT7 receptor (Homo sapiens, UniProt P34969). The series is described as follows: radioligand binding assay, [3H]-LSD. To be noted: read-out: 5-HT7 1 µM ± SEM (% of control specific binding). The protocol: as §1
Series [3] addresses PDE10A (Homo sapiens, UniProt Q9Y233). The experiment in a line: luminescence PDE inhibition assay (PDElight HTS cAMP phosphodiesterase assay kit). To be noted: for inhibition at 3 µM / inhibition at 10 µM: 1 h, percentage of inhibition respective to vehicle control (DMSO); for IC50: SEM of three independent experiments performed in duplicate. It counts as biochemical. As to the method:
Test and reference compounds were dissolved in dimethyl sulfoxide (DMSO) at a concentration of 1 mM and further diluted in assay buffer in order to obtain the final concentration of compounds: 10 µM and 3 µM, respectively. All reactions were carried out at 37 °C in white, half-area 96-well plates (Perkin Elmer, Waltham, MA, USA). The inhibition of PDE 10A enzyme was measured using the PDElight HTS cAMP phosphodiesterase assay kit (Lonza) according to the manufacturer’s recommendations. 2.5 U of PDE 10A enzyme was preincubated either with DMSO (vehicle control) or compound for 20 min before incubation with the substrate, cAMP (final concentration 1.25 µM), for 1 h. Then, PDELight AMP Detection Reagent was added. After 10 min incubation, the luminescence was measured in a multifunction plate reader (POLARstar Omega, BMG Labtech, Ortenberg, Germany).

Molecules are shown by their SMILES.

Sequence of PDE10A (Q9Y233 whole entry, species assumed): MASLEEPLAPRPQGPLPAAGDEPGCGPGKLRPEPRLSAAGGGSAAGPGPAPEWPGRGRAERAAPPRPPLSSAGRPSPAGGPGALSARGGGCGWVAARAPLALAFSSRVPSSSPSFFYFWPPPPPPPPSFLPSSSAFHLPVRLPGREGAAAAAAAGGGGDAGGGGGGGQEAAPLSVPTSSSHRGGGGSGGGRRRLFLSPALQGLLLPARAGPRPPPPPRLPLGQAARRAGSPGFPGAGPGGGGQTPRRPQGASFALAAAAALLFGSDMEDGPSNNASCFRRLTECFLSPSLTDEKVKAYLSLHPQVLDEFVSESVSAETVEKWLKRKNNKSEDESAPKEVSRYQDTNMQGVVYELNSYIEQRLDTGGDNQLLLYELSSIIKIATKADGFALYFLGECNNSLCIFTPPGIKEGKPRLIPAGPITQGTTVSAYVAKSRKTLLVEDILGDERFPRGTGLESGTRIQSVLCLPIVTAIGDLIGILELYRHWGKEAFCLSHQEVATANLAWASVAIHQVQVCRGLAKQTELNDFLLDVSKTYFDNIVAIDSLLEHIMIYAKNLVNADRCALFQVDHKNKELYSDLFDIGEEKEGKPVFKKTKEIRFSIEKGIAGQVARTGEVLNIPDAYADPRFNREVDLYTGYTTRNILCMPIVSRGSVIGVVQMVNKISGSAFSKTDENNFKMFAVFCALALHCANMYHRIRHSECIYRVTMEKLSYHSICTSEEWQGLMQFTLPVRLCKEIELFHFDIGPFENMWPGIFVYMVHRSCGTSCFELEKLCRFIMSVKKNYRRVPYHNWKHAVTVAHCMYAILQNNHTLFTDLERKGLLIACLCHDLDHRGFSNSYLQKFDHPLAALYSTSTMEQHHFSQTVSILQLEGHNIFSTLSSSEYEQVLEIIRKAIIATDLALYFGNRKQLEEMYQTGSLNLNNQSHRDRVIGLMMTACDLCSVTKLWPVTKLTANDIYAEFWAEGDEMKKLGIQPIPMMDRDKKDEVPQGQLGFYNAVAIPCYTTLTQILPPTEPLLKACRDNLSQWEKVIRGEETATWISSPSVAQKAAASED
Sequence of 5-HT7 receptor (P34969 whole entry): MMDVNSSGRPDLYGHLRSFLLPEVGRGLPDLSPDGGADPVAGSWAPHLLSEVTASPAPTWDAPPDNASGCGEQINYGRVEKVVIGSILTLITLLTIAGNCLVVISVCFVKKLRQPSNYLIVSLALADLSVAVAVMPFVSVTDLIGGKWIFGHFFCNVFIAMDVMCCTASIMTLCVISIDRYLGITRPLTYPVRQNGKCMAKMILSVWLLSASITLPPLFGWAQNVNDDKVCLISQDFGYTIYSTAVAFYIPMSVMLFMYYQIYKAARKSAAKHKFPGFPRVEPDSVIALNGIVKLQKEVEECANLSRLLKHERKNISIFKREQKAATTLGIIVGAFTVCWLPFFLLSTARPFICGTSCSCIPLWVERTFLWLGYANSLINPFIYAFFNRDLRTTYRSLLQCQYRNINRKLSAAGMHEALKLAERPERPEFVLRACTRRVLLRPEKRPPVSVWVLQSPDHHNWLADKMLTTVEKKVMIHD

As for `COc1cc2c(cc1OC)CN(CCN1C(=O)c3cccc(OC)c3C1=O)CC2` [Compound 3, 2-[2-(6,7-Dimethoxy-3,4-dihydroisoquinolin-2(1H)-yl)ethyl]-4-methoxy-1H-isoindole-1,3(2H)-dione], the melting point (in general, the temperature of the solid-liquid transition) was in the range of 108 to 109 °C. Also, the inhibition at 1 µM in series [1] stood at 27 ± 3%. The inhibition at 1 µM in series [2] was 0%. In series [3], this compound displayed an inhibition at 3 µM of 0% and an inhibition at 10 µM of 0%.

For `COc1cccc2c1C(=O)N(CCN1CCc3ccccc3C1)C2=O` [Compound 4, 2-[2-(3,4-Dihydroisoquinolin-2(1H)-yl)ethyl]-4-methoxy-1H-isoindole-1,3(2H)-dione], the melting point lay within 157 to 158 °C. In addition, in series [1], the inhibition at 1 µM was 12 ± 4%. Moreover, in series [2], the inhibition at 1 µM stood at 0%. Besides, in series [3], the inhibition at 3 µM turned out to be 0% and the inhibition at 10 µM is 0%.

As to `COc1cccc2c1C(=O)N(CCN1CCC3CCCCC3C1)C2=O` (stereo not drawn) [Compound 5, 2-[2-(Octahydroisoquinolin-2(1H)-yl)ethyl]-4-methoxy-1H-isoindole-1,3(2H)-dione], the melting point lay in the range of 145 to 146 °C. Besides, in series [1], the inhibition at 1 µM is 25 ± 3%. In series [2], the inhibition at 1 µM is 0%. In series [3], this compound showed an inhibition at 3 µM of 0% and an inhibition at 10 µM of 0%.

For `COc1cc2c(cc1OC)CN(CCCN1C(=O)c3cccc(OC)c3C1=O)CC2` [Compound 6, 2-[3-(6,7-Dimethoxy-3,4-dihydroisoquinolin-2(1H)-yl)propyl]-4-methoxy-1H-isoindole-1,3(2H)-dione], the melting point lay in the range of 107 to 109 °C. For the same compound, the inhibition at 1 µM in series [1] was 32 ± 4%. The inhibition at 1 µM in series [2] turned out to be 0%. In addition, in series [3], the inhibition at 3 µM came out at 0% and the inhibition at 10 µM is 0%.

`COc1cccc2c1C(=O)N(CCCN1CCc3ccccc3C1)C2=O` [Compound 7, 2-[3-(3,4-Dihydroisoquinolin-2(1H)-yl)propyl]-4-methoxy-1H-isoindole-1,3(2H)-dione] came in with a melting point of 92 to 93 °C. Besides, the inhibition at 1 µM in series [1] amounted to 33 ± 2%. In addition, the inhibition at 1 µM in series [2] was 51 ± 2%. In series [3], this compound returned an inhibition at 3 µM of 18% and an inhibition at 10 µM of 19%.

Consider `COc1cccc2c1C(=O)N(CCCN1CCC3CCCCC3C1)C2=O` (stereo not drawn) [Compound 8, 2-[3-(Octahydroisoquinolin-2(1H)-yl)propyl]-4-methoxy-1H-isoindole-1,3(2H)-dione], for which the melting point lay within 103 to 104 °C. Moreover, the inhibition at 1 µM in series [1] turned out to be 28 ± 3%. Further, in series [2], the inhibition at 1 µM was 0%. In series [3], this compound had an inhibition at 3 µM of 7% and an inhibition at 10 µM of 7%.

With `COc1cccc2c1C(=O)N(Cc1ccccc1)C2=O` [Compound 9, 2-Benzyl-4-methoxy-1H-isoindole-1,3(2H)-dione], the melting point was in the range of 167 to 168 °C. In series [1], the inhibition at 1 µM turned out to be 6 ± 2%. The inhibition at 1 µM in series [2] stood at 0%. In series [3], this compound yielded an inhibition at 3 µM of 0% and an inhibition at 10 µM of 0%.

Consider `COc1cccc2c1C(=O)N(Cc1ccccn1)C2=O` [Compound 10, 4-Methoxy-2-(pyridin-2-ylmethyl)-1H-isoindole-1,3(2H)-dione], for which the melting point lay within 144 to 145 °C. The inhibition at 1 µM in series [1] amounted to 10 ± 1%. Besides, the inhibition at 1 µM in series [2] worked out at 0%. Further, in series [3], the inhibition at 3 µM came out at 0% and the inhibition at 10 µM worked out at 0%.

For `COc1cccc2c1C(=O)N(Cc1nc3ccccc3[nH]1)C2=O` [Compound 11, 2-(1H-Benzimidazol-2-ylmethyl)-4-methoxy-1H-isoindole-1,3(2H)-dione], the melting point lay within 239 to 240 °C. Also, in series [1], the inhibition at 1 µM was determined as 39 ± 3%. For the same compound, in series [2], the inhibition at 1 µM was found to be 0%. In series [3], this compound came in with an inhibition at 3 µM of 7% and an inhibition at 10 µM of 15%.

With `COc1cccc2c1C(=O)N(CCc1ccccc1)C2=O` [Compound 12, 4-Methoxy-2-(2-phenylethyl)-1H-isoindole-1,3(2H)-dione], the melting point lay in the range of 123 to 124 °C. Also, the inhibition at 1 µM in series [1] is 13 ± 2%. In addition, the inhibition at 1 µM in series [2] turned out to be 0%. In series [3], this compound registered an inhibition at 3 µM of 5% and an inhibition at 10 µM of 10%.

For the compound `COc1cccc2c1C(=O)N(CCc1ccccn1)C2=O` [Compound 13, 4-Methoxy-2-[2-(pyridin-2-yl)ethyl]-1H-isoindole-1,3(2H)-dione], the melting point fell in the range of 155 to 157 °C. The inhibition at 1 µM in series [1] was found to be 59 ± 4%. Further, the inhibition at 1 µM in series [2] stood at 0%. In series [3], this compound yielded an inhibition at 3 µM of 0% and an inhibition at 10 µM of 0%.

In turn, `COc1cccc2c1C(=O)N(CCc1c[nH]cn1)C2=O` [Compound 14, 2-[2-(1H-Imidazol-4-yl)ethyl]-4-methoxy-1H-isoindole-1,3(2H)-dione] returned a melting point of 227 to 228 °C. The inhibition at 1 µM in series [1] was 21 ± 1%. For the same compound, in series [2], the inhibition at 1 µM came out at 0%. In series [3], this compound registered an inhibition at 3 µM of 0% and an inhibition at 10 µM of 0%.

`COc1cccc2c1C(=O)N(CCc1nc3ccccc3[nH]1)C2=O` [Compound 15, 2-[2-(1H-Benzimidazol-2-yl)ethyl]-4-methoxy-1H-isoindole-1,3(2H)-dione] registered a melting point of 197 to 198 °C. In addition, the inhibition at 1 µM in series [1] came out at 44 ± 5%. Further, in series [2], the inhibition at 1 µM is 0%. For the same compound, in series [3], the inhibition at 3 µM is 40%, the inhibition at 10 µM was determined as 70% and the IC50 (commonly the midpoint of a concentration-inhibition curve) was 6.71 ± 0.195 µM.

The compound `COc1cccc2c1C(=O)N(CCCc1ccccc1)C2=O` [Compound 16, 4-Methoxy-2-(3-phenylpropyl)-1H-isoindole-1,3(2H)-dione] came in with a melting point of 94 to 95 °C. In addition, in series [1], the inhibition at 1 µM is 32 ± 3%. The inhibition at 1 µM in series [2] was 14%. In addition, in series [3], the inhibition at 3 µM was 11% and the inhibition at 10 µM was determined as 13%.

In the case of `COc1cccc2c1C(=O)N(CCCc1nc3ccccc3[nH]1)C2=O` [Compound 17, 2-[3-(1H-Benzimidazol-2-yl)propyl]-4-methoxy-1H-isoindole-1,3(2H)-dione], the melting point fell in the range of 217 to 218 °C. In addition, the inhibition at 1 µM in series [1] is 16 ± 5%. Besides, the inhibition at 1 µM in series [2] worked out at 10 ± 3%. Also, in series [3], the inhibition at 3 µM amounted to 73%, the inhibition at 10 µM was found to be 86% and inhibition was half-maximal at 1.001 ± 0.009 µM (IC50).

`COc1cccc2c1C(=O)N(CCCCCc1nc3ccccc3[nH]1)C2=O` [Compound 19, 2-[5-(1H-Benzimidazol-2-yl)pentyl]-4-methoxy-1H-isoindole-1,3(2H)-dione]: the melting point was in the range of 108 to 109 °C. Further, the inhibition at 1 µM in series [1] was found to be 28 ± 2%. In addition, in series [2], the inhibition at 1 µM was determined as 6%. In series [3], this compound displayed an inhibition at 3 µM of 52%, an inhibition at 10 µM of 75% and an IC50 of 4.31 ± 0.365 µM.

Take `O=C1c2ccccc2C(=O)N1CCc1nc2ccccc2[nH]1` [Compound 20, 2-[2-(1H-Benzimidazol-2-yl)ethyl]-1H-isoindole-1,3(2H)-dione]: the melting point was in the range of 202 to 203 °C. Moreover, the inhibition at 1 µM in series [1] stood at 26 ± 2%. Besides, the inhibition at 1 µM in series [2] is 36%. In series [3], the inhibition at 3 µM was 0% and the inhibition at 10 µM was found to be 1%.

Compound `O=C1c2ccccc2C(=O)N1CCCc1nc2ccccc2[nH]1` [Compound 21, 2-[3-(1H-Benzimidazol-2-yl)propyl]-1H-isoindole-1,3(2H)-dione] yielded a melting point of 190 to 191 °C. Further, the inhibition at 1 µM in series [1] worked out at 27 ± 2%. The inhibition at 1 µM in series [2] came to 14 ± 2%. In series [3], this compound displayed an inhibition at 3 µM of 16% and an inhibition at 10 µM of 45%.

For the compound `O=C1c2ccccc2C(=O)N1CCCCc1nc2ccccc2[nH]1` [Compound 22, 2-[4-(1H-Benzimidazol-2-yl)butyl]-1H-isoindole-1,3(2H)-dione], the melting point lay in the range of 179 to 180 °C. Moreover, in series [1], the inhibition at 1 µM is 20 ± 3%. The inhibition at 1 µM in series [2] is 15 ± 2%. In series [3], the inhibition at 3 µM was 47%, the inhibition at 10 µM is 73% and inhibition was half-maximal at 5.65 ± 0.495 µM (IC50).

Values taken from PMC7504677, “Impact of N-Alkylamino Substituents on Serotonin Receptor (5-HTR) Affinity and Phosphodiesterase 10A (PDE10A) Inhibition of Isoindole-1,3-dione Derivatives” (Molecules, 2020).
